PMC4984525 (Cancer, 2011)

Assays:
A2780 = A2780 subcutaneous xenograft, mouse; cited from earlier work
[1] = Plasma pharmacokinetics of ARRY-520; assay type: in vivo, human; conditions: for coefficient of variation (CV) for CL: inter-patient variability; for MRT / Tmax / half-life: median (min-max)

CON(C)C(=O)N1N=C(c2cc(F)ccc2F)S[C@@]1(CCCN)c1ccccc1 [ARRY-520]
anti-cancer efficacy (A2780): demonstrated anti-cancer efficacy
coefficient of variation (CV) for CL ([1]; Schedule 1, Cycle 1): 50.7%
coefficient of variation (CV) for CL ([1]; Schedule 1, Cycle 2): 77.1%
time plasma concentrations maintained above 2 ng/mL ([1]; Schedule 1, following a single infusion, postinitiation of infusion, all cohorts): greater than 7 days
time geometric mean plasma concentrations maintained above 2 ng/mL ([1]; Schedule 2, all cohorts): more than 14 days
overall ratio of AUC0–24 on Day 5 compared to Day 1 ([1]; Schedule 2, dosing at 48-hour intervals): 2.23
AUC(0-t) ([1]; human, plasma, intravenous, 0.8 mg/m^2, AUC0–24, Schedule 2, Cycle 1 Day 1, 0.8 mg/m^2 (N=3), geometric mean (geometric %CV)): 116 ng·h/mL
AUC(0-t) ([1]; human, plasma, intravenous, 0.8 mg/m^2, AUC0–24, Schedule 2, Cycle 1 Day 5, 0.8 mg/m^2 (N=3), geometric mean (geometric %CV)): 179 ng·h/mL
clearance ([1]; human, plasma, intravenous, 0.8 mg/m^2, CL, Schedule 2, Cycle 1 Day 1, 0.8 mg/m^2 (N=3), geometric mean (geometric %CV)): 109 mL/min
clearance ([1]; human, plasma, intravenous, 0.8 mg/m^2, CL, Schedule 2, Cycle 1 Day 5, 0.8 mg/m^2 (N=3), geometric mean (geometric %CV)): 33.8 mL/min
Cmax ([1]; human, plasma, intravenous, 0.8 mg/m^2, Cmax, Schedule 2, Cycle 1 Day 1, 0.8 mg/m^2 (N=3), geometric mean (geometric %CV)): 19.5 ng/mL
Cmax ([1]; human, plasma, intravenous, 0.8 mg/m^2, Cmax, Schedule 2, Cycle 1 Day 5, 0.8 mg/m^2 (N=3), geometric mean (geometric %CV)): 25.3 ng/mL
MRT ([1]; human, plasma, intravenous, 0.8 mg/m^2, MRT, Schedule 2, Cycle 1 Day 5, 0.8 mg/m^2 (N=3)): 130 h
Tmax ([1]; human, plasma, intravenous, 0.8 mg/m^2, Tmax, Schedule 2, Cycle 1 Day 1, 0.8 mg/m^2 (N=3)): 1 h
Tmax ([1]; human, plasma, intravenous, 0.8 mg/m^2, Tmax, Schedule 2, Cycle 1 Day 5, 0.8 mg/m^2 (N=3)): 1.08 h
Vd ([1]; human, plasma, intravenous, 0.8 mg/m^2, Vss, Schedule 2, Cycle 1 Day 1, 0.8 mg/m^2 (N=3), mean (%CV)): 295 L
Vd ([1]; human, plasma, intravenous, 0.8 mg/m^2, Vss, Schedule 2, Cycle 1 Day 5, 0.8 mg/m^2 (N=3), mean (%CV)): 193 L
half-life ([1]; human, plasma, intravenous, 0.8 mg/m^2, t1/2, Schedule 2, Cycle 1 Day 1, 0.8 mg/m^2 (N=3)): 29.8 h
half-life ([1]; human, plasma, intravenous, 0.8 mg/m^2, t1/2, Schedule 2, Cycle 1 Day 5, 0.8 mg/m^2 (N=3)): 92.5 h
AUC(0-t) ([1]; human, plasma, intravenous, 1.2 mg/m^2, AUC0–24, Schedule 2, Cycle 1 Day 1, 1.2 mg/m^2 (N=6), geometric mean (geometric %CV)): 133 ng·h/mL
AUC(0-t) ([1]; human, plasma, intravenous, 1.2 mg/m^2, AUC0–24, Schedule 2, Cycle 1 Day 5, 1.2 mg/m^2 (N=6), geometric mean (geometric %CV)): 320 ng·h/mL
clearance ([1]; human, plasma, intravenous, 1.2 mg/m^2, CL, Schedule 2, Cycle 1 Day 1, 1.2 mg/m^2 (N=6), geometric mean (geometric %CV)): 130 mL/min
clearance ([1]; human, plasma, intravenous, 1.2 mg/m^2, CL, Schedule 2, Cycle 1 Day 5, 1.2 mg/m^2 (N=6), geometric mean (geometric %CV)): 15.8 mL/min
Cmax ([1]; human, plasma, intravenous, 1.2 mg/m^2, Cmax, Schedule 2, Cycle 1 Day 1, 1.2 mg/m^2 (N=6), geometric mean (geometric %CV)): 18.8 ng/mL
Cmax ([1]; human, plasma, intravenous, 1.2 mg/m^2, Cmax, Schedule 2, Cycle 1 Day 5, 1.2 mg/m^2 (N=6), geometric mean (geometric %CV)): 24.3 ng/mL
MRT ([1]; human, plasma, intravenous, 1.2 mg/m^2, MRT, Schedule 2, Cycle 1 Day 5, 1.2 mg/m^2 (N=6)): 134 h
Tmax ([1]; human, plasma, intravenous, 1.2 mg/m^2, Tmax, Schedule 2, Cycle 1 Day 1, 1.2 mg/m^2 (N=6)): 1.09 h
Tmax ([1]; human, plasma, intravenous, 1.2 mg/m^2, Tmax, Schedule 2, Cycle 1 Day 5, 1.2 mg/m^2 (N=6)): 1 h
Vd ([1]; human, plasma, intravenous, 1.2 mg/m^2, Vss, Schedule 2, Cycle 1 Day 1, 1.2 mg/m^2 (N=6), mean (%CV)): 363 L
Vd ([1]; human, plasma, intravenous, 1.2 mg/m^2, Vss, Schedule 2, Cycle 1 Day 5, 1.2 mg/m^2 (N=6), mean (%CV)): 239 L
half-life ([1]; human, plasma, intravenous, 1.2 mg/m^2, t1/2, Schedule 2, Cycle 1 Day 1, 1.2 mg/m^2 (N=6)): 25.6 h
half-life ([1]; human, plasma, intravenous, 1.2 mg/m^2, t1/2, Schedule 2, Cycle 1 Day 5, 1.2 mg/m^2 (N=6)): 94.9 h
AUC(0-t) ([1]; human, plasma, intravenous, 1.5 mg/m^2, AUC0–24, Schedule 2, Cycle 1 Day 1, 1.5 mg/m^2 (N=6), geometric mean (geometric %CV)): 264 ng·h/mL
AUC(0-t) ([1]; human, plasma, intravenous, 1.5 mg/m^2, AUC0–24, Schedule 2, Cycle 1 Day 5, 1.5 mg/m^2 (N=6), geometric mean (geometric %CV)): 667 ng·h/mL
clearance ([1]; human, plasma, intravenous, 1.5 mg/m^2, CL, Schedule 2, Cycle 1 Day 1, 1.5 mg/m^2 (N=6), geometric mean (geometric %CV)): 98.3 mL/min
clearance ([1]; human, plasma, intravenous, 1.5 mg/m^2, CL, Schedule 2, Cycle 1 Day 5, 1.5 mg/m^2 (N=6), geometric mean (geometric %CV)): 18.5 mL/min
Cmax ([1]; human, plasma, intravenous, 1.5 mg/m^2, Cmax, Schedule 2, Cycle 1 Day 1, 1.5 mg/m^2 (N=6), geometric mean (geometric %CV)): 57.9 ng/mL
Cmax ([1]; human, plasma, intravenous, 1.5 mg/m^2, Cmax, Schedule 2, Cycle 1 Day 5, 1.5 mg/m^2 (N=6), geometric mean (geometric %CV)): 134 ng/mL
MRT ([1]; human, plasma, intravenous, 1.5 mg/m^2, MRT, Schedule 2, Cycle 1 Day 5, 1.5 mg/m^2 (N=6)): 119 h
Tmax ([1]; human, plasma, intravenous, 1.5 mg/m^2, Tmax, Schedule 2, Cycle 1 Day 1, 1.5 mg/m^2 (N=6)): 1 h
Tmax ([1]; human, plasma, intravenous, 1.5 mg/m^2, Tmax, Schedule 2, Cycle 1 Day 5, 1.5 mg/m^2 (N=6)): 1.02 h
Vd ([1]; human, plasma, intravenous, 1.5 mg/m^2, Vss, Schedule 2, Cycle 1 Day 1, 1.5 mg/m^2 (N=6), mean (%CV)): 251 L
Vd ([1]; human, plasma, intravenous, 1.5 mg/m^2, Vss, Schedule 2, Cycle 1 Day 5, 1.5 mg/m^2 (N=6), mean (%CV)): 169 L
half-life ([1]; human, plasma, intravenous, 1.5 mg/m^2, t1/2, Schedule 2, Cycle 1 Day 1, 1.5 mg/m^2 (N=6)): 26.1 h
half-life ([1]; human, plasma, intravenous, 1.5 mg/m^2, t1/2, Schedule 2, Cycle 1 Day 5, 1.5 mg/m^2 (N=6)): 82.2 h
AUC(0-t) ([1]; human, plasma, intravenous, 1.8 mg/m^2, AUC0–24, Schedule 2, Cycle 1 Day 1, 1.8 mg/m^2 (N=2), geometric mean): 208 ng·h/mL
AUC(0-t) ([1]; human, plasma, intravenous, 1.8 mg/m^2, AUC0–24, Schedule 2, Cycle 1 Day 5, 1.8 mg/m^2 (N=2), geometric mean): 608 ng·h/mL
clearance ([1]; human, plasma, intravenous, 1.8 mg/m^2, CL, Schedule 2, Cycle 1 Day 1, 1.8 mg/m^2 (N=2), geometric mean): 130 mL/min
clearance ([1]; human, plasma, intravenous, 1.8 mg/m^2, CL, Schedule 2, Cycle 1 Day 5, 1.8 mg/m^2 (N=2), geometric mean): 18.3 mL/min
Cmax ([1]; human, plasma, intravenous, 1.8 mg/m^2, Cmax, Schedule 2, Cycle 1 Day 1, 1.8 mg/m^2 (N=2), geometric mean): 24.4 ng/mL
Cmax ([1]; human, plasma, intravenous, 1.8 mg/m^2, Cmax, Schedule 2, Cycle 1 Day 5, 1.8 mg/m^2 (N=2), geometric mean): 53.6 ng/mL
MRT ([1]; human, plasma, intravenous, 1.8 mg/m^2, MRT, Schedule 2, Cycle 1 Day 5, 1.8 mg/m^2 (N=2)): 114 h
Tmax ([1]; human, plasma, intravenous, 1.8 mg/m^2, Tmax, Schedule 2, Cycle 1 Day 1, 1.8 mg/m^2 (N=2)): 1 h
Tmax ([1]; human, plasma, intravenous, 1.8 mg/m^2, Tmax, Schedule 2, Cycle 1 Day 5, 1.8 mg/m^2 (N=2)): 1 h
Vd ([1]; human, plasma, intravenous, 1.8 mg/m^2, Vss, Schedule 2, Cycle 1 Day 1, 1.8 mg/m^2 (N=2), mean): 306 L
Vd ([1]; human, plasma, intravenous, 1.8 mg/m^2, Vss, Schedule 2, Cycle 1 Day 5, 1.8 mg/m^2 (N=2), mean): 127 L
half-life ([1]; human, plasma, intravenous, 1.8 mg/m^2, t1/2, Schedule 2, Cycle 1 Day 1, 1.8 mg/m^2 (N=2)): 27.1 h
half-life ([1]; human, plasma, intravenous, 1.8 mg/m^2, t1/2, Schedule 2, Cycle 1 Day 5, 1.8 mg/m^2 (N=2)): 80 h
AUC(0-inf) ([1]; human, plasma, intravenous, 2.5 mg/m^2): 1650 ng·h/mL
clearance ([1]; human, plasma, intravenous, 2.5 mg/m^2, CL, Schedule 1, Cycle 1 Day 1, 2.5 mg/m^2 (N=3), geometric mean (geometric %CV)): 44.8 mL/min
Cmax ([1]; human, plasma, intravenous, 2.5 mg/m^2, Cmax, Schedule 1, Cycle 1 Day 1, 2.5 mg/m^2 (N=3), geometric mean (geometric %CV)): 132 ng/mL
MRT ([1]; human, plasma, intravenous, 2.5 mg/m^2, MRT, Schedule 1, Cycle 1 Day 1, 2.5 mg/m^2 (N=3)): 92.7 h
Tmax ([1]; human, plasma, intravenous, 2.5 mg/m^2, Tmax, Schedule 1, Cycle 1 Day 1, 2.5 mg/m^2 (N=3)): 2 h
Vd ([1]; human, plasma, intravenous, 2.5 mg/m^2, Vss, Schedule 1, Cycle 1 Day 1, 2.5 mg/m^2 (N=3), mean (%CV)): 405 L
half-life ([1]; human, plasma, intravenous, 2.5 mg/m^2, t1/2, Schedule 1, Cycle 1 Day 1, 2.5 mg/m^2 (N=3)): 97.2 h
AUC(0-t) ([1]; human, plasma, intravenous, 3.6 mg/m^2, AUC0–24, Schedule 2, Cycle 1 Day 1, 3.6 mg/m^2 (N=1), geometric mean): 345 ng·h/mL
AUC(0-t) ([1]; human, plasma, intravenous, 3.6 mg/m^2, AUC0–24, Schedule 2, Cycle 1 Day 5, 3.6 mg/m^2 (N=1), geometric mean): 733 ng·h/mL
clearance ([1]; human, plasma, intravenous, 3.6 mg/m^2, CL, Schedule 2, Cycle 1 Day 1, 3.6 mg/m^2 (N=1), geometric mean): 187 mL/min
clearance ([1]; human, plasma, intravenous, 3.6 mg/m^2, CL, Schedule 2, Cycle 1 Day 5, 3.6 mg/m^2 (N=1), geometric mean): 22.2 mL/min
Cmax ([1]; human, plasma, intravenous, 3.6 mg/m^2, Cmax, Schedule 2, Cycle 1 Day 1, 3.6 mg/m^2 (N=1), geometric mean): 73.9 ng/mL
Cmax ([1]; human, plasma, intravenous, 3.6 mg/m^2, Cmax, Schedule 2, Cycle 1 Day 5, 3.6 mg/m^2 (N=1), geometric mean): 199 ng/mL
MRT ([1]; human, plasma, intravenous, 3.6 mg/m^2, MRT, Schedule 2, Cycle 1 Day 5, 3.6 mg/m^2 (N=1)): 152 h
Tmax ([1]; human, plasma, intravenous, 3.6 mg/m^2, Tmax, Schedule 2, Cycle 1 Day 1, 3.6 mg/m^2 (N=1)): 1 h
Tmax ([1]; human, plasma, intravenous, 3.6 mg/m^2, Tmax, Schedule 2, Cycle 1 Day 5, 3.6 mg/m^2 (N=1)): 1.08 h
